Reference: US20240269304A1, “BCL-XL INHIBITOR ANTIBODY-DRUG CONJUGATES AND METHODS OF USE THEREOF” (Novartis AG, priority 2020, published 2024)
Read-outs that look alike come from different tables or passages of the source.

Experiments:
[1] = ADC stability study: % aggregates by SEC after incubation at 37° C. for 168 h; assay type: physicochemical
Method: Size Exclusion Chromatography: Size exclusion chromatography (SEC) was performed for quality control of each ADCs by measuring monomer percentage of the conjugate. The analysis was performed on analytical column Superdex 200 Increase 5/150 GL (GE Healthcare, 28990945) in isocratic conditions 100% PBS pH7.4 (Sigma Life Science, P3813, 10PAK), flow 0.45 mI/min for 12 minutes. The % aggregate fraction of the conjugate sample was quantified based on the peak area absorbance at 280 nm. Its calculation was based on the ratio between the high molecular weight eluent at 280 nm divided by the sum of peak area absorbance at the same wavelength of the high molecular weight and monomeric eluents multiplied by 100.
Characterization of the exemplary ADCs is summarized in Table 13 (coupling, LC-MS method, OAR, aggregation status, ADO stability and yield). The average OAR values were determined using the above LC-MS methods and the percentage of aggregates was measured by size exclusion chromatography (SEC) during the quality control of the ADO and after the stability study (incubation at 37° C. for 168 h).

[2] = test system: H1650 cells; assay: CellTiterGlo (CTG) cell viability, 3D, 120 h, H1650 (Example 8); assay type: cell-based, human
[3] = test system: ALL-SIL cells; assay: CellTiterGlo (CTG) cell viability, 72 h, ALL-SIL (Example 8); assay type: cell-based
Method: ALL-SIL cells were cultivated in RPMI supplemented with 20% heat inactivated fetal bovine serum, penicillin (100 IU/ml), streptomycin (100 μg/ml) and L-glutamine (2 mM). Cell lines were cultured at 37° C. in a humidified atmosphere containing 5% CO2. Cells were seeded in 96 well clear bottom plates (96 well clear-bottom, white, Corning reference 3903) and exposed to the payloads or ADCs for 72 h (serially diluted; 9 concentrations each, triplicates). Effects of payloads or ADCs on cell viability were assessed after 3 days of incubation at 37° C./5% CO2 by quantification of cellular ATP levels using CellTiterGlo at 75 μL reagent/well. All the conditions were tested in triplicates. Luminescence was quantified on a multipurpose plate reader. IC50s were calculated using standard four-parametric curve fitting. […] Each experiment was performed at least twice, with results being reproducible.

[4] = test system: DND-41 cells; assay: CellTiterGlo (CTG) cell viability, 72 h, DND-41 (Example 8); assay type: cell-based
Method: DND-41 cells were cultivated in RPMI supplemented with 10% heat inactivated fetal bovine serum, penicillin (100 IU/ml), streptomycin (100 μg/ml) and L-glutamine (2 mM). Cell lines were cultured at 37° C. in a humidified atmosphere containing 5% CO2. […] Effects of payloads or ADCs on cell viability were assessed after 3 days of incubation at 37° C./5% CO2 by quantification of cellular ATP levels using CellTiterGlo at 75 μL reagent/well. All the conditions were tested in triplicates. Luminescence was quantified on a multipurpose plate reader. IC50s were calculated using standard four-parametric curve fitting.

[5] = H1650 3D, experiment n1, read-out: H1650 3D CTG IC50 n1
[6] = H1650 3D, experiment n2, read-out: H1650 3D CTG IC50 n2
[7] = H1650 3D, mean of n1 and n2, read-out: H1650 3D CTG IC50 Mean of n1 and n2
[8] = experiment n1, read-out: ALLSIL CTG 72 h IC50 nM n1
[9] = experiment n2, read-out: ALLSIL CTG 72 h IC50 nM n2
[10] = mean of n1 and n2, read-out: ALLSIL CTG 72 h IC50 nM Mean of n1 and n2
[11] = DND41, experiment n1, read-out: DND41 CTG 72 h IC50 nM n1
[12] = DND41, experiment n2, read-out: DND41 CTG 72 h IC50 nM n2
[13] = DND41, mean of n1 and n2, read-out: DND41 CTG 72 h IC50 nM Mean of n1 and n2
[14] = Homo sapiens, NCI-H1650, H1650 3D, experiment n1, read-out: H1650 3D CTG IC50 n1
[15] = Homo sapiens, NCI-H1650, H1650 3D, experiment n2, read-out: H1650 3D CTG IC50 n2
[16] = Homo sapiens, NCI-H1650, H1650 3D, mean of n1 and n2, read-out: H1650 3D CTG IC50 Mean of n1 and n2

| Structure (SMILES) | Stab w1 +37° C. % Agg (by SEC) [1] [%] | IC50 [2, 5] [nM] | IC50 [2, 6] [nM] | IC50 [2, 7] [nM] | IC50 [3, 8] [nM] | IC50 [3, 9] [nM] | IC50 [3, 10] [nM] | IC50 [4, 11] [nM] | IC50 [4, 12] [nM] | IC50 [4, 13] [nM] | IC50 [2, 14] [nM] | IC50 [2, 15] [nM] | IC50 [2, 16] [nM] |
| --- | --- | --- | --- | --- | --- | --- | --- | --- | --- | --- | --- | --- | --- |
| Cc1cc(N(C)c2ccc(-c3cnn(C[C@]45C[C@]6(C)C[C@](C)(C4)C[C@@](OCCN(CCCO)C(=O)OCc4ccc(NC(=O)[C@H](CCCNC(N)=O)CC(=O)[C@@H](NC(=O)CCOCCN7C(=O)CC(C)C7=O)C(C)C)cc4)(C6)C5)c3C)c(C(=O)O)n2)nnc1Nc1nc2ccccc2s1 (mixture of isomers) [Ab C - L9C-P26] | 3 | 0.12 | 0.11 | 0.12 |  |  |  |  |  |  |  |  |  |
| Cc1c(Nc2nc3ccccc3s2)nnc2c1CCCN2c1nc(C(=O)O)c(CCCOc2ccc(C#CCN(CCN(C)C)C(=O)OCc3ccc(NC(=O)[C@H](CCCNC(N)=O)NC(=O)[C@@H](NC(=O)CCOCCN4C(=O)CC(C)C4=O)C(C)C)cc3)cc2F)s1 (stereo partly shown) [Ab C - L9C-P12] | 4 | 0.6 | 0.9 | 0.75 |  |  |  |  |  |  |  |  |  |
| Cc1cc(N(C)c2nc(C(=O)O)c(CCCOc3ccc(C#CCN(C)C(=O)OCc4ccc(NC(=O)[C@H](C)NC(=O)[C@@H](NC(=O)CCOCCN5C(=O)CC(C)C5=O)C(C)C)cc4CC[C@@H]4O[C@H](C(=O)O)[C@@H](O)[C@H](O)[C@H]4O)cc3F)s2)nnc1Nc1nc2ccccc2s1 (stereo partly shown) [Ab C -L106C-P7] | 29 | 1.8 | 1.5 | 1.65 |  |  |  |  |  |  |  |  |  |
| Cc1c(Nc2nc3ccccc3s2)nnc2c1CCCN2c1nc(C(=O)O)c(CCCOc2ccc(C#CCN3CCN(C(=O)OCc4ccc(NC(=O)[C@H](CCCNC(N)=O)NC(=O)[C@@H](NC(=O)CCOCCN5C(=O)CC(C)C5=O)C(C)C)cc4)CC3)cc2F)s1 (stereo partly shown) [Ab C - L9C-P17] | 22 | 2.85 | 2.51 | 2.68 |  |  |  |  |  |  |  |  |  |
| Cc1c(NC2Nc3ccccc3S2)nnc2c1CCCN2c1nc(C(=O)[O-])c(CCCOc2ccc(C#CC[N+]3(Cc4ccc(NC(=O)[C@H](CCCNC(N)=O)NC(=O)[C@@H](NC(=O)CCCCCN5C(=O)CC(C)C5=O)C(C)C)cc4)CCCCC3)cc2F)s1 (stereo partly shown) [Ab C - L9A-P18] | 3 | 1.2 | 1.25 | 1.23 |  |  |  |  |  |  |  |  |  |
| CCN(C)CC#Cc1ccc(OCCCc2sc(N3CCCc4c3nnc(Nc3nc5ccccc5s3)c4C)nc2C(=O)O)c(F)c1 [P13, 2-[3-(1,3-Benzothiazol-2-ylamino)-4-methyl-6,7-dihydro-5H-pyrido[2,3-c]pyridazin-8-yl]-5-[3-[4-[3-[ethyl(methyl)amino]prop-1-ynyl]-2-fluoro-phenoxy]propyl]thiazole-4-carboxylic acid] |  |  |  |  | 2.6 | 1.44 | 2.02 | 11.8 | 12.1 | 11.9 | 1.8 | 3 | 2.4 |
| C=C(C)CCCC[C@](C)(CC(=C)[C@@](C)(CC(=C)CCCCCC1C(=C)CC(C)C1=C)C(C)C)C(=C)Cc1ccc(CC(C)(C)CCC[C@]23C[C@]4(C)C[C@](C)(C2)C[C@@](CC2C=CC(c5ccc(C6CCCc7c6ccc(CC6=Cc8ccccc8C6)c7C)cc5C(=C)C)=C2C)(C4)C3)cc1 (stereo partly shown) [Ab C - L9A-P27] | 16 | 0.3 | 0.22 | 0.26 |  |  |  |  |  |  |  |  |  |
| Cc1cc(N(C)c2nc(C(=O)[O-])c(CCCOc3ccc(C#CC(C)[N+](C)(C)Cc4ccc(NC(=O)[C@H](CCCNC(N)=O)NC(=O)[C@@H](NC(=O)CCOCCN5C(=O)CC(C)C5=O)C(C)C)cc4)cc3F)s2)nnc1Nc1nc2ccccc2s1 (stereo partly shown) [Ab C - L9A-P11] | 2.4 | 0.5 | 0.5 | 0.5 |  |  |  |  |  |  |  |  |  |
| Cc1c(Nc2nc3ccccc3s2)nnc2c1CCCN2c1nc(C(=O)O)c(CCCOc2ccc(C#CCN(C)C)cc2F)s1 [P1, 2-[3-(1,3-Benzothiazol-2-ylamino)-4-methyl-6,7-dihydro-5H-pyrido[2,3-c]pyridazin-8-yl]-5-[3-[4-[3-(dimethylamino)prop-1-ynyl]-2-fluoro-phenoxy]propyl]thiazole-4-carboxylic acid] |  |  |  |  | 0.38 | 0.14 | 0.26 | 1.3 | 0.26 | 0.78 | 0.51 | 1.28 | 0.9 |
